Test results as given in patent publication US20250163048A1 (Tango Therapeutics, Inc., priority 2022, published 2025).
Where two headings read alike, the source gives them in different places.

What was measured:
[1] = test system: HAP1 MTAP-deleted cell line; test: SDMA in-cell western assay, HAP1 MTAP-deleted; settings: for Hap1 MTAP intact/deleted ratio: IC50 ratio between HAP1 MTAP-intact and HAP1 MTAP-deleted cell line
MTAP-deleted cell line = test: viability assay for the MTAP-deleted cell line; type: cell-based
[2] = test system: HAP1 MTAP-intact cell line; test: SDMA in-cell western assay, HAP1 MTAP-intact
[3] = Homo sapiens, HAP1, read-out: Hap1 MTAP deleted IC50, SDMA in-cell western, HAP1 MTAP-deleted cell line
[4] = Homo sapiens, HAP1, read-out: Hap1 MTAP deleted IC90, SDMA in-cell western, HAP1 MTAP-deleted cell line
[5] = Homo sapiens, HAP1, viability assay
[6] = Homo sapiens, HAP1, read-out: Hap1 MTAP intact IC50, SDMA in-cell western, HAP1 MTAP-intact cell line
[7] = Homo sapiens, HAP1, read-out: Hap1 MTAP deleted IC50, SDMA in-cell western assay, HAP1 MTAP-deleted cell line
[8] = Homo sapiens, HAP1, read-out: Hap1 MTAP deleted IC90, SDMA in-cell western assay, HAP1 MTAP-deleted cell line
[9] = Homo sapiens, HAP1, read-out: Hap1 MTAP intact IC50, SDMA in-cell western assay, HAP1 MTAP-intact cell line

Structure (SMILES)	IC50 [1, 3] [nM]	IC90 [1, 4] [nM]	IC50 [2, 6] [nM]	IC50 [1, 7] [nM]	IC90 [1, 8] [nM]	IC50 [2, 9] [nM]	Hap1 MTAP intact/deleted ratio ([1]; SDMA in-cell western)	IC50 (MTAP-deleted cell line; [5]) [nM]	Hap1 MTAP intact/deleted ratio ([1]; SDMA in-cell western assay)	IC50 ([2]; Homo sapiens, HAP1, read-out: Hap1 MTAP intact IC50) [nM]	IC50 ([1]; read-out: Hap1 MTAP deleted IC50, SDMA in-cell western assay, HAP1 MTAP-deleted cell line) [nM]	IC90 ([1]; read-out: Hap1 MTAP deleted IC90, SDMA in-cell western assay, HAP1 MTAP-deleted cell line) [nM]	IC50 (MTAP-deleted cell line; viability assay, read-out: Hap1 MTAP deleted viability IC50) [nM]	IC50 ([2]; read-out: Hap1 MTAP intact IC50, SDMA in-cell western assay, HAP1 MTAP-intact cell line) [nM]
CCN(C)c1cccc(C2CCCCN2C(=O)C(=O)Nc2cnc(N)c3cn[nH]c23)c1 (single isomer, unassigned) [Compound 251]	–	–	–	< 5	< 75	5 to 50	–	< 100	B (“B” indicates an IC50 ratio greater than or equal to 15 fold but lower than 30 fold)	–	–	–	–	–
C[C@H]1CC[C@H](c2ccc3scnc3c2)N(C(=O)C(=O)Nc2cnc(N)c3c2cnn3C)C1 [Compound 199, N-(7-Amino-1-methyl-pyrazolo[3,4-c]pyridin-4-yl)-2-oxo-2-[(2R,5S)-2-(1,3-benzothiazol-5-yl)-5-methyl-1-piperidyl]acetamide]	–	–	–	< 5	< 75	–	–	< 100	C (“C” indicates an IC50 ratio of less than 15 fold)	5 to 50	–	–	–	–
CC[C@@H]1CC[C@@H](C)N(C(=O)C(=O)Nc2cnc(N)c3cn[nH]c23)C1 (racemic) [Compound 269, N-(4-Amino-1H-pyrazolo[4,3-c]pyridin-7-yl)-2-oxo-2-[rac-(2R,5R)-5-ethyl-2-methyl-1-piperidyl]acetamide]	–	–	–	5 to 50	> 125	> 50	–	100 to 1000	A (“A” indicates an IC50 ratio greater than or equal to 30 fold)	–	–	–	–	–
CC1OCc2c(NC(=O)C(=O)N3C[C@@H](C)CC[C@@H]3c3ccc4scnc4c3)cnc(N)c21 (single isomer, unassigned) [Compound 288]	–	–	–	–	–	–	–	–	B (“B” indicates an IC50 ratio greater than or equal to 15 fold but lower than 30 fold)	–	> 50	> 125	> 1000	> 50

Continued, in another order:

IC50 [1, 3] [nM]	IC90 [1, 4] [nM]	IC50 [2, 6] [nM]	IC50 [1, 7] [nM]	IC90 [1, 8] [nM]	IC50 [2, 9] [nM]	Structure (SMILES)	Hap1 MTAP intact/deleted ratio ([1]; SDMA in-cell western)	IC50 (MTAP-deleted cell line; [5]) [nM]	Hap1 MTAP intact/deleted ratio ([1]; SDMA in-cell western assay)	IC50 ([2]; Homo sapiens, HAP1, read-out: Hap1 MTAP intact IC50) [nM]	IC50 ([1]; read-out: Hap1 MTAP deleted IC50, SDMA in-cell western assay, HAP1 MTAP-deleted cell line) [nM]	IC90 ([1]; read-out: Hap1 MTAP deleted IC90, SDMA in-cell western assay, HAP1 MTAP-deleted cell line) [nM]	IC50 (MTAP-deleted cell line; viability assay, read-out: Hap1 MTAP deleted viability IC50) [nM]	IC50 ([2]; read-out: Hap1 MTAP intact IC50, SDMA in-cell western assay, HAP1 MTAP-intact cell line) [nM]
< 5	< 75	5 to 50	–	–	–	C[C@H]1CC[C@H](c2ccc3sc(C4CCN(C)CC4)nc3c2)N(C(=O)C(=O)Nc2ccn3ccnc3c2)C1 [Compound 91, N-(imidazo[1,2-a]pyridin-7-yl)-2-((2R,5S)-5-methyl-2-(2-(1-methylpiperidin-4-yl)benzo[d]thiazol-5-yl)piperidin-1-yl)-2-oxoacetamide]	B (“B” indicates an IC50 ratio greater than or equal to 15 fold but lower than 30 fold)	< 100	–	–	–	–	–	–
< 5	< 75	5 to 50	–	–	–	CC(CN(C)C)c1nc2cc([C@H]3CC[C@H](C)CN3C(=O)C(=O)Nc3cncc4cn[nH]c34)ccc2s1 (stereo partly drawn) [Compound 21, 2-((2R,5S)-2-(2-(1-(dimethylamino)propan-2-yl)benzo[d]thiazol-5-yl)-5-methylpiperidin-1-yl)-2-oxo-N-(1H-pyrazolo[4,3-c]pyridin-7-yl)acetamide]	C (“C” indicates an IC50 ratio of less than 15 fold)	< 100	–	–	–	–	–	–
< 5	< 75	> 50	–	–	–	C[C@H]1CC[C@H](c2ccc3sc(CC(C)(C)N(C)C)nc3c2)N(C(=O)C(=O)Nc2cncc3cn[nH]c23)C1 [Compound 122, 2-((2R,5S)-2-(2-(2-(dimethylamino)-2-methylpropyl)benzo[d]thiazol-5-yl)-5-methylpiperidin-1-yl)-2-oxo-N-(1H-pyrazolo[4,3-c]pyridin-7-yl)acetamide]	A (“A” indicates an IC50 ratio greater than or equal to 30 fold)	< 100	–	–	–	–	–	–
–	–	–	< 5	< 75	5 to 50	C[C@H]1CC[C@H](c2ccc3c(c2)CCO3)N(C(=O)C(=O)Nc2cnc(N)c3cn[nH]c23)C1 (racemic) [Compound 206, N-(4-Amino-1H-pyrazolo[4,3-c]pyridin-7-yl)-2-oxo-2-[rac-(2R,5S)-2-(2,3-dihydrobenzofuran-5-yl)-5-methyl-1-piperidyl]acetamide]	–	< 100	B (“B” indicates an IC50 ratio greater than or equal to 15 fold but lower than 30 fold)	–	–	–	–	–
5 to 50	> 125	> 50	–	–	–	C[C@H]1CC[C@H](c2ccc3sc(C4CCN(C)C(=O)C4)nc3c2)N(C(=O)C(=O)Nc2cncc3[nH]ncc23)C1 (single isomer, unassigned) [Compound 73]	A (“A” indicates an IC50 ratio greater than or equal to 30 fold)	100 to 1000	–	–	–	–	–	–
5 to 50	75 to 125	> 50	–	–	–	CNc1ncc(NC(=O)C(=O)N2C[C@@H](C)CC[C@@H]2c2ccc3scnc3c2)c2[nH]ncc12 [Compound 146, 2-((2R,5S)-2-(benzo[d]thiazol-5-yl)-5-methylpiperidin-1-yl)-N-(4-(methylamino)-1H-pyrazolo[4,3-c]pyridin-7-yl)-2-oxoacetamide]	A (“A” indicates an IC50 ratio greater than or equal to 30 fold)	100 to 1000	–	–	–	–	–	–
